We go through six compounds from patent publication US20240239806A1, “COMPOUNDS, COMPOSITIONS AND METHODS OF TREATING DISORDERS” (Chengdu Anticancer Bioscience, Ltd., priority 2021, published 2024).

Assay [1] relates to human lung cancer cell line NCI-H23. In words: Colony formation assay of long-term effect. To be noted: exposed for three days, drug-free medium until 12 days; compared with AZD1152. The format is cell-based. From the text:
Acute cytotoxicity immediately determined after short-term exposure to antimitotic agents often underestimates their potency, because some cancer cells might not die quickly after suffering mitotic defects such as an arrest in mitosis or a cytokinetic failure. Instead, after exposed to antimitotic agents, cells might face multiple possibilities that adversely affect their viability and proliferation in long-term such as permanent arrest of proliferation due to the development of senescence and nonapoptotic cell death by excessive autophagy. Only a small fraction of cells pretreated with an antimitotic agent might resume proliferation and divide to generate viable daughter cells that form colonies. Assay of the ability of cells to form colonies after being exposed to an anticancer agent for a short period of time represents a more accurate approach to document the potency of antimitotic agents. The human lung cancer cell line NCI-H23 in sub-confluence was exposed to compounds #7, #36, and #39 for three days and then transferred to drug-free fresh medium once every 3 days until 12 days after the initiation of treatment. At the end point, cells were photographed after fixed and stained with crystal violet.

The subject of another assay is Human Cancer Cells. Description: Anchorage-independent growth in 3D culture (FIG. 3). The format is cell-based. To be noted: FIG. 3 legend, cell line not named. From the text:
(§1) Measuring the ability of cells to grow in soft agar has been popularly believed as the gold standard assay for cellular transformation in vitro. In the Soft Agar Assay, cells grow from single cells to cell colonies in a semi-solid agar solution that keeps them away from the solid surface and allows growth in an anchorage-independent way.
(§2) The anchorage-independent growth of cells is one of the hallmarks of cancer cells. Normal epithelial cells are supported by basement membranes that provide survival and proliferative signals while undergo a type of apoptosis called anoikis when lose their attachment to the extracellular matrix. Cancer cells, in contrast, evade detachment-induced apoptosis, leading to uncontrolled proliferation and metastasis. The Soft Agar Colony Formation Assay allows testing of the therapeutic efficacy of compounds against anchorage-independent 3D growth of cancer cells in vin. The assay was performed in 6-well plates with two layers of agar. For the first, 0.75% agar in DMEM medium was melted in a microwave oven and poured to form a bottom layer. Once solidified, 10-100K cells in 1 ml of DMEM containing 0.35% agar was added to form the top layer, which was later covered with 0.5 ml of DMEM. Cell culture medium was changed once every two days until colonies were ready to photograph. We test the antitumor activity of select compounds in soft agar colony formation assays. […] The suppression of growth of these three cancer cell lines in 3D culture is consistent with the potent impact of these compounds on cellular proliferation in 2D culture.

In assay [2] the test system is colon cancer cell line HCT116. Description: Soft agar colony formation assay. It counts as cell-based, human.
Text: as §1, §2

The next assay relates to NCI-N87. Description: MECP in cancer cell line. It counts as cell-based. The following applies: Homo sapiens. In short, it runs like this: (§3)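 Potency reported in bins: A 1 nM-1.0 μM, B to 10.0 μM, C to 30.0 μM, D above 30.0 μM. Compounds (1 nM-30 μM) applied to cells in DMEM/5% FBS; imaging-based readout at 24-72 h of mitotic index (raised at 24 h) and polyploidy (48 h), marking cytokinetic failure.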

Another assay concerns NCI-H2170. Description: MECP in cancer cell line. It counts as cell-based, human. As to the method: (§4) Six lung cancer cell lines (NCI-H23, NCI-H460, NCI-H596, NCI-H2170, Calu-6 and A549), two colon cancer cell lines (HCT116 and SW460), one breast cancer cell line MDA-MB-231, one gastric cancer cell line NCI-N87, one prostate cancer cell line DU145, one cervical cancer cell line Hela, and one glioblastoma cell line T98G were obtained from ATCC. The T2 HCC cell line was derived from a mouse liver cancer model initiated by a transgene of MYC. All cell lines were cultured in DMEM (Gibco, Cleveland, TN, USA) supplemented with 5% fetal bovine serum (Gibco), penicillin (100 U/mL)—streptomycin (100 μg/mL) (Gibco, Cat. No. 15140-122), 2 mM L-glutamine (Gibco, 200 mM solution, Cat. No. 25030081), and 1 mM sodium pyruvate (Gibco, 100 mM solution, Cat. No. 11360070) at 37° C. in a humidified incubator that was maintained at 5% CO2.
(§5) We have previously developed a mechanism-informed phenotypic screening assay to identify novel antimitotic agents. Equipped with a prior understanding of the versatile functions of the chromosomal passenger protein (CPP) complex in orchestrating karyokinesis and cytokinesis, the screening assay is to score for phenotypes typically seen when the CPP complex is disabled. Specifically, the parameters for a positive hit are a temporary elevation of mitotic index (MI) at 24 hours of drug treatment and an accumulation of polyploid cells at 48 hours of drug treatment, indicative of mitotic arrest and cytokinetic failure respectively. These parameters exclude compounds that elicit only a prolonged arrest of cells in mitosis, a phenotype typically provoked by spindle toxins. The screening procedure is briefly summarized here. RPEMYC^H2B-GFP cells engineered to express a Histone 2B-EGFP fusion protein were passaged as batches of 96-well plates, 18-24 hours before exposure to the chemical compounds of the present disclosure at concentrations from 1 nM to 30 μM. At 24, 48 or 72 hours after initiation of treatment, cells were analyzed for either an arrest in mitosis or a change in DNA content by GE IN-Cell Analyzer 2000. As set forth in Table 2 below, a value of greater than or equal to 1 nM and less than or equal to 1.0 μM is marked “A”; a value greater than 1.00 μM and less than or equal to 10.0 μM is marked “B”; a value greater than 10.0 μM and less than or equal to 30.0 μM is marked “C”; and a value greater than 30.0 μM is marked “D.”

For a further assay, the system named is DU145. In words: MECP in cancer cell line. It counts as cell-based, human. As to the method:
as §4, §5

The test system of the next assay is Calu-6. Description: MECP in cancer cell line. The format is cell-based, human. The method, then:
as §4, §5

The next assay deals with SW480. Description: MECP in cancer cell line. The format is cell-based. The following applies: Homo sapiens. The essentials:
as §3

For assay [3], the system named is human lung cancer cell line NCI-H23. In words: Soft agar colony formation assay. The format is cell-based.
Text: as §1
The anchorage-independent growth of cells is one of the hallmarks of cancer cells. Normal epithelial cells are supported by basement membranes that provide survival and proliferative signals while undergo a type of apoptosis called anoikis when lose their attachment to the extracellular matrix. Cancer cells, in contrast, evade detachment-induced apoptosis, leading to uncontrolled proliferation and metastasis. The Soft Agar Colony Formation Assay allows testing of the therapeutic efficacy of compounds against anchorage-independent 3D growth of cancer cells in vin. The assay was performed in 6-well plates with two layers of agar. For the first, 0.75% agar in DMEM medium was melted in a microwave oven and poured to form a bottom layer. Once solidified, 10-100K cells in 1 ml of DMEM containing 0.35% agar was added to form the top layer, which was later covered with 0.5 ml of DMEM. Cell culture medium was changed once every two days until colonies were ready to photograph. […]

“Also recorded” adds a separate entry of the source.

As for `COc1cc(OC)cc(Oc2ccnc3ccccc23)c1` [Compound 7, 4-(3,5-dimethoxyphenoxy)quinoline], in [1], the “long-term proliferative potential of NCI-H23 cells (colony formation)” value (“long-term proliferative potential” below) was “Suppress the Long-Term Proliferative Potential; also recorded: inhibited the long-term proliferative potential”. Further, in the assay on Human Cancer Cells, the “Anchorage-independent Growth of Human Cancer Cells in 3D Culture” value (“Anchorage-independent Growth” for short) is reported as “Suppress the Anchorage-independent Growth”. The “growth in soft agar” value in [2] is recorded as “suppressed the growth”.
For `COC(=O)c1cc(OC)cc(Oc2ncnc3cc(OC)c(OC)cc23)c1` [Compound 29], the figures for the minimal effective concentration with NCI-N87 and in the assay on SW480 were 0.001 to 1 µM and 1 to 10 µM, respectively. Moreover, the MECP result was “A (a value of greater than or equal to 1 nM and less than or equal to 1.0 μM)” in the assay with NCI-H2170; “B (a value greater than 1.00 M and less than or equal to 10.0 μM)” in the assay with DU145; “A (a value of greater than or equal to 1 nM and less than or equal to 1.0 μM)” in the assay with Calu-6.
In the case of `COC(=O)c1cc(OC)cc(Oc2ncnc3cc[nH]c23)c1` [Compound 34, methyl 3-((5H-pyrrolo[3,2-d]pyrimidin-4-yl)oxy)-5-methoxybenzoate], the minimal effective concentration in the assay with NCI-N87 and with SW480 was 0.001 to 1 µM each time. The MECP result in the assay on NCI-H2170 was “A (a value of greater than or equal to 1 nM and less than or equal to 1.0 μM)”; in the assay on DU145, “A (a value of greater than or equal to 1 nM and less than or equal to 1.0 μM)”; in the assay with Calu-6, “A (a value of greater than or equal to 1 nM and less than or equal to 1.0 μM)”.
Turning to `COC(=O)c1cc(Oc2ncnc3cc[nH]c23)cc(C(=O)OC)c1` [Compound 36, dimethyl 5-((5H-pyrrolo[3,2-d]pyrimidin-4-yl)oxy)isophthalate], the minimal effective concentration (as a rule, the lowest level tested that produced the effect sought) with NCI-N87 was in the range of 0.001 to 1 µM. The “growth in soft agar” value in assay [3] is on record as “completely blocked the growth”. Further, the MECP result in the assay on NCI-H2170 is “A (a value of greater than or equal to 1 nM and less than or equal to 1.0 μM)”; in the assay on DU145, “A (a value of greater than or equal to 1 nM and less than or equal to 1.0 μM)”; in the assay on Calu-6 it was “A (a value of greater than or equal to 1 nM and less than or equal to 1.0 μM)”. The “long-term proliferative potential” value in assay [1] is listed as “Suppress the Long-Term Proliferative Potential; also recorded: inhibited the long-term proliferative potential”. For the same compound, the “Anchorage-independent Growth” value in the assay on Human Cancer Cells is reported as “Suppress the Anchorage-independent Growth”.
`COC(=O)c1cc(OC)cc(Oc2ncnc3ccsc23)c1` [Compound 37, methyl 3-methoxy-5-(thieno[3,2-d]pyrimidin-4-yloxy)benzoate]: the minimal effective concentration in the assay on NCI-N87 and in the assay on SW480 was 0.001 to 1 µM each time. Further, the MECP entry in the assay on NCI-H2170 is “A (a value of greater than or equal to 1 nM and less than or equal to 1.0 μM)”; in the assay on DU145 it was “A (a value of greater than or equal to 1 nM and less than or equal to 1.0 μM)”; with Calu-6, “A (a value of greater than or equal to 1 nM and less than or equal to 1.0 μM)”.
Turning to `COC(=O)c1cc(Oc2ncnc3ccsc23)cc(C(=O)OC)c1` [Compound 39, dimethyl 5-(thieno[3,2-d]pyrimidin-4-yloxy)isophthalate], the minimal effective concentration with NCI-N87 was in the range of 0.001 to 1 µM. Moreover, the “growth in soft agar” value in [3] is on record as “completely blocked the growth”. The MECP entry with NCI-H2170 was “A (a value of greater than or equal to 1 nM and less than or equal to 1.0 μM)”; in the assay on DU145, “A (a value of greater than or equal to 1 nM and less than or equal to 1.0 μM)”; with Calu-6 it was “A (a value of greater than or equal to 1 nM and less than or equal to 1.0 μM)”. In addition, the “long-term proliferative potential” value in [1] was “Suppress the Long-Term Proliferative Potential; also recorded: inhibited the long-term proliferative potential”. Further, in the assay on Human Cancer Cells, the “Anchorage-independent Growth” value is “Suppress the Anchorage-independent Growth”.
